Measurements taken from patent publication US10238661B2, “Fused, spirocyclic heteroaromatic compounds for the treatment of bacterial infections” (priority 2014, dated 2019).
≈ marks a conversion by molar mass, not a printed value. Where “and” joins values, the source holds several entries; their conditions need not be identical. Equal entries are not always repeated. Where two headings read alike, the source gives them in different places.

Assays:
[1] = system: Mycoplasma genitalium; experiment: microbe, parasite or virus in culture; assay type: cell-based; details: for MIC: Mycoplasmoides genitalium
[2] = system: Mycoplasma pneumoniae; experiment: Broth microdilution MIC assay (CLSI M43-A), M. pneumoniae; assay type: cell-based; details: for MIC50 / MIC90 / MIC Range: M. pneumoniae isolates, n = 12
[3] = system: Mycoplasma hominis; experiment: microbe, parasite or virus in culture; assay type: cell-based
[4] = system: Ureaplasma species; experiment: microbe, parasite or virus in culture; assay type: cell-based, Ureaplasma urealyticum, Ureaplasma parvum; details: for MIC50 / MIC90 / MIC: Ureaplasma; for MIC: ATCC33175
[5] = system: Ureaplasma species; details: Ureaplasma urealyticum ATCC 33175; CLSI M43-A acceptable QC range; cited from earlier work
[6] = system: Bacillus anthracis; experiment: microbe, parasite or virus in culture; assay type: cell-based
[7] = system: Francisella tularensis; experiment: microbe, parasite or virus in culture; assay type: cell-based
[8] = system: Burkholderia mallei; experiment: microbe, parasite or virus in culture; assay type: cell-based; details: Burkholderia mallei
[9] = system: Yersinia pestis; experiment: microbe, parasite or virus in culture; assay type: cell-based
[10] = system: Brucella melitensis; experiment: microbe, parasite or virus in culture; assay type: cell-based
[11] = system: Brucella suis; experiment: microbe, parasite or virus in culture; assay type: cell-based
[12] = system: Burkholderia pseudomallei; experiment: microbe, parasite or virus in culture; assay type: cell-based
[13] = M. pneumoniae M-129 QC Strain ATCC 29342-B7, read-out: MIC
[14] = M. pneumoniae isolate 51494, read-out: MIC
[15] = M. pneumoniae isolate 53706, read-out: MIC
[16] = M. pneumoniae isolate 53938, read-out: MIC
[17] = M. pneumoniae isolate 54484, macrolide-resistant, read-out: MIC
[18] = M. pneumoniae isolate 54506, macrolide-resistant, read-out: MIC
[19] = M. pneumoniae isolate 55246, read-out: MIC
[20] = M. pneumoniae isolate 55612, read-out: MIC
[21] = M. pneumoniae isolate 57807, read-out: MIC
[22] = M. pneumoniae isolate 58188, read-out: MIC
[23] = M. pneumoniae isolate 58772, read-out: MIC
[24] = M. pneumoniae isolate 59597, read-out: MIC
[25] = M. pneumoniae isolate 59598, read-out: MIC

CC[C@H]1OC(=O)[C@H](C)[C@@H](O[C@H]2C[C@@](C)(OC)[C@@H](O)[C@H](C)O2)[C@H](C)[C@@H](O[C@@H]2O[C@H](C)C[C@H](N(C)C)[C@H]2O)[C@](C)(O)C[C@@H](C)CN(C)[C@H](C)[C@@H](O)[C@]1(C)O [Azithromycin]
MIC Range [1]: <0.001 µg/mL
MIC [1]: < 0.001 µg/mL
MIC ([1]; ATCC33530): < 0.001 µg/mL
MIC ([1]; ATCC49895): < 0.001 µg/mL
MIC ([1]; ATCC49899): < 0.001 µg/mL
MIC [2, 13]: < 0.001 µg/mL
MIC [2, 14]: < 0.001 µg/mL
MIC [2, 15]: < 0.001 µg/mL
MIC [2, 16]: < 0.001 µg/mL
MIC [2, 17]: 32 µg/mL (≈ 42.7 µM)
MIC [2, 18]: 16 µg/mL (≈ 21.4 µM)
MIC [2, 19]: < 0.001 µg/mL
MIC [2, 20]: < 0.001 µg/mL
MIC [2, 21]: < 0.001 µg/mL
MIC [2, 22]: < 0.001 µg/mL
MIC [2, 23]: < 0.001 µg/mL
MIC [2, 24]: < 0.001 µg/mL
MIC [2, 25]: < 0.001 µg/mL
MIC50 [2]: < 0.001 µg/mL
MIC90 [2]: 16 µg/mL (≈ 21.4 µM)
MIC Range [2]: <0.001-32 ^ μg/mL
MIC ([2]; most M. pneumoniae isolates, read-out: MICs of most isolates): < 0.001 µg/mL
MICs of two macrolide-resistant strains ([2]; two M. pneumoniae strains with mutations in 23S ribosomal RNA): 32 µg/mL
MIC ([2]; two M. pneumoniae strains with mutations in 23S ribosomal RNA, read-out: MICs of two macrolide-resistant strains): 16 µg/mL (≈ 21.4 µM)
MIC Range [3]: 1 to 8 µg/mL
MIC50 ([3]; Metamycoplasma hominis): 4 µg/mL (≈ 5.34 µM)
MIC90 ([3]; Metamycoplasma hominis): 4 µg/mL (≈ 5.34 µM)
MIC Range [4]: 1 to 32 µg/mL
MIC50 [4]: 2 µg/mL (≈ 2.67 µM)
MIC90 [4]: 4 µg/mL (≈ 5.34 µM)
MIC [4]: 2 µg/mL (≈ 2.67 µM)
MIC Limits for Quality Control Strain [5]: 0.5 to 8 µg/mL

O=C(N[C@H](CO)[C@H](O)c1ccc([N+](=O)[O-])cc1)C(Cl)Cl [Chloramphenicol]
MIC [6]: 4 µg/mL (≈ 12.4 µM)
MIC ([6]; Bacillus anthracis): 8 µg/mL (≈ 24.8 µM)
MIC [7]: 1 µg/mL (≈ 3.09 µM)
MIC ([7]; Francisella tularensis): 2 µg/mL (≈ 6.19 µM)

C[C@@H]1CN2c3c(cc4c(N5C(=O)OC[C@@H]5C)noc4c3F)CC3(C(=O)NC(=O)NC3=O)[C@H]2[C@H](C)O1 [Compound 1, (2R,4S,4aS)-11-fluoro-2,4-dimethyl-8-[(4S)-4-methyl-2-oxo-1,3-oxazolidin-3-yl]-1,2,4,4a-tetrahydro-2′H,6H-spiro[1,4-oxazino[4,3-a][1,2]oxazolo[4,5-g]quinoline-5,5′-pyrimidine]-2′,4′,6′(1′H,3′H)-trione]
MIC [1]: 0.5 µg/mL (≈ 1.03 µM)
MIC ([1]; ATCC33530): 0.5 µg/mL (≈ 1.03 µM)
MIC ([1]; ATCC49895): 1 µg/mL (≈ 2.05 µM)
MIC ([1]; ATCC49899): 0.5 µg/mL (≈ 1.03 µM)
MIC90 [8]: 32 µg/mL (≈ 65.6 µM)
MIC50 [9]: 4 µg/mL (≈ 8.21 µM)
MIC50 ([9]; Yersinia pestis): 2 µg/mL (≈ 4.1 µM)
MIC [10]: 16 µg/mL (≈ 32.8 µM)
MIC ([10]; Brucella melitensis): 8 µg/mL (≈ 16.4 µM)
MIC [11]: 1 µg/mL (≈ 2.05 µM)
MIC Range [11]: 1 to 2 µg/mL
MIC ([11]; Brucella suis): 2 µg/mL (≈ 4.1 µM)
MIC50 ([11]; Brucella suis): 1 µg/mL (≈ 2.05 µM)
MIC90 ([11]; Brucella suis): 2 µg/mL (≈ 4.1 µM)
MIC90 relative to doxycycline (fold higher) ([2]; M. pneumoniae): 4 fold
MIC [2, 13]: 0.5 µg/mL (≈ 1.03 µM)
MIC [2, 14]: 0.5 µg/mL (≈ 1.03 µM)
MIC [2, 15]: 0.5 µg/mL (≈ 1.03 µM)
MIC [2, 16]: 0.5 µg/mL (≈ 1.03 µM)
MIC [2, 17]: 0.5 µg/mL (≈ 1.03 µM)
MIC [2, 18]: 0.5 µg/mL (≈ 1.03 µM)
MIC [2, 19]: 1 µg/mL (≈ 2.05 µM)
MIC [2, 20]: 1 µg/mL (≈ 2.05 µM)
MIC [2, 21]: 0.5 µg/mL (≈ 1.03 µM)
MIC [2, 22]: 0.5 µg/mL (≈ 1.03 µM)
MIC [2, 23]: 0.5 µg/mL (≈ 1.03 µM)
MIC [2, 24]: 0.5 µg/mL (≈ 1.03 µM)
MIC [2, 25]: 0.5 µg/mL (≈ 1.03 µM)
MIC50 [2]: 0.5 µg/mL (≈ 1.03 µM)
MIC90 [2]: 1 µg/mL (≈ 2.05 µM)
in vitro potency against macrolide-resistant versus macrolide-susceptible isolates ([2]; two macrolide-resistant M. pneumoniae isolates): maintained in vitro potency
MIC90 [6]: 1 µg/mL (≈ 2.05 µM)
MIC Range [6]: 0.12 to 1 µg/mL and 0.12 to 4 µg/mL
MIC50 ([6]; Bacillus anthracis): 0.25 µg/mL (≈ 0.513 µM)
MIC90 ([6]; Bacillus anthracis): 0.5 µg/mL (≈ 1.03 µM)
MIC90 relative to levofloxacin (fold greater) [3]: 16 fold
MIC Range [3]: 1 to 8 µg/mL
effect of presence of tetM on MICs [3]: not affected by the presence of tetM
MIC50 ([3]; Metamycoplasma hominis): 2 µg/mL (≈ 4.1 µM)
MIC90 ([3]; Metamycoplasma hominis): 4 µg/mL (≈ 8.21 µM)
MIC ([3]; Metamycoplasma hominis, read-out: maximum MIC value): 8 µg/mL (≈ 16.4 µM)
MIC90 potency relative to azithromycin (fold more potent / lower MIC90) [4]: 4 fold
MIC range for isolates containing tetM [4]: 0.5 to 2 µg/mL
difference in MICs, levofloxacin-resistant versus levofloxacin-susceptible isolates [4]: no difference
MIC50 [4]: 0.5 µg/mL (≈ 1.03 µM)
MIC90 [4]: 1 µg/mL (≈ 2.05 µM)
MIC [4]: 0.5 µg/mL (≈ 1.03 µM)
MIC [12]: 64 µg/mL (≈ 131 µM)
MIC90 [12]: >64 µg/mL
MIC ([12]; Burkholderia pseudomallei): 32 µg/mL (≈ 65.6 µM)
MIC50 ([12]; Burkholderia pseudomallei): 32 µg/mL (≈ 65.6 µM)
MIC90 ([12]; Burkholderia pseudomallei): 64 µg/mL (≈ 131 µM)
MIC [7]: 8 µg/mL (≈ 16.4 µM)
MIC Range [7]: 8 to 16 µg/mL
MIC ([7]; Francisella tularensis): 16 µg/mL (≈ 32.8 µM)
MIC50 ([7]; Francisella tularensis): 16 µg/mL (≈ 32.8 µM)
MIC90 ([7]; Francisella tularensis): 16 µg/mL (≈ 32.8 µM)

C[C@H]1c2cccc(O)c2C(=O)C2=C(O)[C@]3(O)C(=O)C(C(N)=O)=C(O)[C@@H](N(C)C)[C@@H]3[C@@H](O)[C@@H]21 [Doxycycline]
MIC Range [1]: 0.25 to 1 µg/mL
MIC [1]: 1 µg/mL (≈ 2.25 µM)
MIC ([1]; ATCC33530): 0.25 µg/mL (≈ 0.563 µM)
MIC ([1]; ATCC49895): 0.25 µg/mL (≈ 0.563 µM)
MIC ([1]; ATCC49899): 0.5 µg/mL (≈ 1.13 µM)
MIC [9]: 1 µg/mL (≈ 2.25 µM)
MIC ([9]; Yersinia pestis): 0.5 µg/mL (≈ 1.13 µM)
MIC [10]: 0.125 µg/mL (≈ 0.281 µM)
MIC ([10]; Brucella melitensis): 0.25 µg/mL (≈ 0.563 µM)
MIC [11]: 0.125 µg/mL (≈ 0.281 µM)
MIC ([11]; Brucella suis): 0.063 µg/mL (≈ 0.142 µM)
MIC [2, 13]: 0.5 µg/mL (≈ 1.13 µM)
MIC [2, 14]: 0.25 µg/mL (≈ 0.563 µM)
MIC [2, 15]: 0.25 µg/mL (≈ 0.563 µM)
MIC [2, 16]: 0.25 µg/mL (≈ 0.563 µM)
MIC [2, 17]: 0.25 µg/mL (≈ 0.563 µM)
MIC [2, 18]: 0.25 µg/mL (≈ 0.563 µM)
MIC [2, 19]: 0.25 µg/mL (≈ 0.563 µM)
MIC [2, 20]: 0.25 µg/mL (≈ 0.563 µM)
MIC [2, 21]: 0.25 µg/mL (≈ 0.563 µM)
MIC [2, 22]: 0.125 µg/mL (≈ 0.281 µM)
MIC [2, 23]: 0.5 µg/mL (≈ 1.13 µM)
MIC [2, 24]: 0.25 µg/mL (≈ 0.563 µM)
MIC [2, 25]: 0.25 µg/mL (≈ 0.563 µM)
MIC50 [2]: 0.25 µg/mL (≈ 0.563 µM)
MIC90 [2]: 0.25 µg/mL (≈ 0.563 µM)
MIC Range [2]: 0.125 to 0.5 µg/mL
MIC ([6]; Bacillus anthracis): ≤ 0.031 µg/mL
MIC Range [3]: 0.016 to 4 µg/mL
MICs for isolates with tetM [3]: 4 µg/mL
MICs for isolates without tetM [3]: 0.016 to 0.063 µg/mL
MIC50 ([3]; Metamycoplasma hominis): 0.032 µg/mL (≈ 0.072 µM)
MIC90 ([3]; Metamycoplasma hominis): 4 µg/mL (≈ 9 µM)
MIC90 activity relative to Compound 1 (fold more active) [4]: 8 fold
MIC Range [4]: 0.016 to 8 µg/mL
MIC range for isolates containing tetM [4]: 4 to 8 µg/mL
MIC50 [4]: 0.125 µg/mL (≈ 0.281 µM)
MIC90 [4]: 8 µg/mL (≈ 18 µM)
MIC [4]: 8 µg/mL (≈ 18 µM)
MIC90 ([4]; read-out: MIC90 for doxycycline-susceptible organisms): 0.125 µg/mL (≈ 0.281 µM)
